In patent US10058540B2, “2-amino-5,5-difluoro-6-(fluoromethyl)-6-phenyl-3,4,5,6-tetrahydropyridines as BACE1 inhibitors” (H. Lundbeck A/S, priority 2014, dated 2018):

Experiments:
BACE1 [1] = target: T1, BACE1 (Homo sapiens (Human), UniProt P56817); experiment: BACE1 efficacy assay (FRET-based, commercial BACE1 kit); assay type: biochemical; details: 10 μM test compound
Protocol: The efficacy assay was performed as a FRET-based assay using a commercially available BACE1 kit (Life Technologies, P2985). 2 μl test compound at 10 μM (final concentration) and 15 μl BACE1 enzyme from the kit (final concentration 3 nM) were preincubated for 15 minutes at room temperature before addition of 15 μl of substrate from the kit (250 nM final concentration) and incubated for additional 90 minutes at room temperature. The assay plate was subsequently read in a Pherastar (Ex540/Em590). The enzyme activity observed in presence of test compound were normalized to the enzyme activity observed in presence of buffer and 10 μM (final concentration) of the high affinity BACE1 reference inhibitor (S)-6-[3-Chloro-5-(5-prop-1-ynyl-pyridin-3-yl)-thiophen-2-yl]-2-imino-3,6-dimethyl-tetra-hydropyrimidin-4-one, respectively. The efficacy of the test compounds was evaluated at 10 μM (final concentration) and defined as the percent inhibition of the enzyme activity using the equation % inhibition=100%−normalized enzyme activity in percent.

P-gp (MDR1) = experiment: MDCK-MDR1 assay (permeability / Pgp efflux); assay type: in vitro ADME; details: dog, Papp BA/Papp AB, Pgp substrate when ≥2
Protocol: The permeability of the test compounds was assessed in MDCK-MDR1 cells that were cultured to confluency (4-6 days) in a 96 transwell plate. Test compounds were diluted with the transport buffer (HBSS+1% BSA) to a concentration of 0.5 μM and applied to the apical or basolateral side of the cell monolayer. Permeation of the test compounds from A to B direction or B to A direction was determined in triplicate over a 60-minute incubation time at 37° C. and 5% CO2 with a relative humidity of 95%. Test compounds were quantified by LC-MS/MS analysis based on the peaks area ratios of analyte/IS in both the receiver and donor wells of the transwell plate.
The apparent permeability coefficient Papp (cm/s) was calculated using the equation: Papp=(dCr/dt)×Vr/(A×C0) Where dCr/dt is the cumulative concentration of compound in the receiver chamber as a function of time (μM/s); Vr is the solution volume in the receiver chamber (0.05 mL on the apical side; 0.25 mL on the basolateral side); A is the surface area for the transport, i.e. 0.0804 cm^2 for the area of the monolayer; C0 is the initial concentration in the donor chamber (μM).
Compounds are classified Pgp substrates when efflux ratio (Papp BA/Papp AB) is ≥2.

BACE1 [2] = target: T1, BACE1; experiment: BACE1 binding assay (SPA-based, radioligand); details: pH 4.5, Ki=IC50/(1+L/Kd)
Protocol: The binding assay was performed as SPA-based assay using a biotinylated form of human BACE1 recombinantly expressed and subsequently purified from Freestyle HEK293 cells. The binding assay was run in a 50 mM sodium acetate buffer, pH 4.5 containing 50 mM NaCl and 0.03% Tween-20 in white clear bottom 384 plates (Corning #3653). 10 nM (final concentration) radioligand ([^3H]-N-((1S,2R)-1-benzyl-3-cyclopropylamino-2-hydroxy-propyl)-5-(methanesulfonyl-methyl-amino)-N-((R)-1-phenyl-ethyl)-isophthalamide) (TRQ11569 purchased from GE Healthcare) was mixed with test compound at a given concentration, 6 nM (final concentration) human BACE1 and 25 μg Streptavidin coated PVT core SPA beads (RPNQ0007, GE Healthcare Life Sciences) in a total volume of 40 μl. Several concentrations of each test compound were tested in the assay for IC50 determination. The plates were incubated for one hour at room temperature and counted in a Wallac Trilux counter. Total and non-specific binding were determined using buffer and 1 μM (final concentration) of the high affinity BACE1 reference inhibitor (S)-6-[3-chloro-5-(5-prop-1-ynyl-pyridin-3-yl)-thiophen-2-yl]-2-imino-3,6-dimethyl-tetrahydro-pyrimidin-4-one, respectively. For each test compound, a IC50 value (the concentration mediating 50% inhibition of the specific binding of the radioligand) was determined from concentration-response curve and used to calculate the Ki from the equation Ki=IC50/(1+L/Kd), where L and Kd are the final concentration of the radioligand used in the assay and the dissociation constant of the radioligand, respectively. The Kd of the radioligand was determined from saturation binding experiments.

T1 sequence (P56817 46-501): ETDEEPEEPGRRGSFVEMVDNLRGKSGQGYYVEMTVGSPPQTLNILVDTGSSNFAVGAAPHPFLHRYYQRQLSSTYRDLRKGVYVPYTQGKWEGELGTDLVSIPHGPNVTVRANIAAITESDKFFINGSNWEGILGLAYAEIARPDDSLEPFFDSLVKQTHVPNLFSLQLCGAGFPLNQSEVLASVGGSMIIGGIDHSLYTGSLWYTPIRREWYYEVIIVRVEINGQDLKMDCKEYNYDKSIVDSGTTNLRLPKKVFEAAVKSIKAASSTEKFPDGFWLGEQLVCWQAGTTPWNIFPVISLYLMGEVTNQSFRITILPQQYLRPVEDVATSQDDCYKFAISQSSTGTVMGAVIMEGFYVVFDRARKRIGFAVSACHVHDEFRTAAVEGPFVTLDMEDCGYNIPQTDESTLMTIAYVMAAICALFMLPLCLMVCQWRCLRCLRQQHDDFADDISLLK

In the case of `NC1=N[C@](CF)(c2cc(NC(=O)c3ccc(Cl)cn3)ccc2F)C(F)(F)CC1` [Compound 1, (S)-N-(3-(6-amino-3,3-difluoro-2-(fluoromethyl)-2,3,4,5-tetrahydropyridin-2-yl)-4-fluorophenyl)-5-chloropicolinamide], the inhibition at 10 µM (BACE1 [1]) is reported as 104%, the efflux ratio at 60 min, 0.5 μM (P-gp (MDR1)) is reported as 1.75 and the Ki (BACE1 [2]) is reported as 5.7 nM.

`NC1=N[C@](CF)(c2cc(NC(=O)c3ccc(F)cn3)ccc2F)C(F)(F)CC1` [Compound 2, (S)-N-(3-(6-amino-3,3-difluoro-2-(fluoromethyl)-2,3,4,5-tetrahydropyridin-2-yl)-4-fluoro-phenyl)-5-fluoropicolinamide] gave an inhibition at 10 µM (BACE1 [1]) of 104%, an efflux ratio at 60 min, 0.5 μM (P-gp (MDR1)) of 2.6 and a Ki (BACE1 [2]) of 22 nM.

With `COc1cnc(C(=O)Nc2ccc(F)c([C@@]3(CF)N=C(N)CCC3(F)F)c2)cn1` [Compound 3, (S)-N-(3-(6-amino-3,3-difluoro-2-(fluoromethyl)-2,3,4,5-tetrahydropyridin-2-yl)-4-fluoro-phenyl)-5-methoxypyrazine-2-carboxamide] the inhibition at 10 µM (BACE1 [1]) was 104%, the efflux ratio at 60 min, 0.5 μM (P-gp (MDR1)) was 2.84 and the Ki (BACE1 [2]) was 13 nM.

`NC1=N[C@](CF)(c2cc(NC(=O)c3ccn(C(F)F)n3)ccc2F)C(F)(F)CC1` [Compound 4, (S)-N-(3-(6-amino-3,3-difluoro-2-(fluoromethyl)-2,3,4,5-tetrahydropyridin-2-yl)-4-fluorophenyl)-1-(difluoromethyl)-1H-pyrazole-3-carboxamide] showed an inhibition at 10 µM (BACE1 [1]) of 104%, an efflux ratio at 60 min, 0.5 μM (P-gp (MDR1)) of 13.8 and a Ki (BACE1 [2]) of 25 nM.

For `NC1=N[C@](CF)(c2cc(NC(=O)c3coc(C(F)F)n3)ccc2F)C(F)(F)CC1` [Compound 5, (S)-N-(3-(6-amino-3,3-difluoro-2-(fluoromethyl)-2,3,4,5-tetrahydropyridin-2-yl)-4-fluoro-phenyl)-2-(difluoromethyl)oxazole-4-carboxamide], the inhibition at 10 µM (BACE1 [1]) was 102%, the efflux ratio at 60 min, 0.5 μM (P-gp (MDR1)) was 7.31 and the Ki (BACE1 [2]) was 15 nM.

With `N#Cc1ccc(C(=O)Nc2ccc(F)c([C@@]3(CF)N=C(N)CCC3(F)F)c2)nc1` [Compound 6, (S)-N-(3-(6-amino-3,3-difluoro-2-(fluoromethyl)-2,3,4,5-tetrahydropyridin-2-yl)-4-fluoro-phenyl)-5-cyanopicolinamide] the inhibition at 10 µM (BACE1 [1]) was 103%, the efflux ratio at 60 min, 0.5 μM (P-gp (MDR1)) was 2.07 and the Ki (BACE1 [2]) was 20 nM.

For `Cc1nc(C(=O)Nc2ccc(F)c([C@@]3(CF)N=C(N)CCC3(F)F)c2)co1` [Compound 7, (S)-N-(3-(6-amino-3,3-difluoro-2-(fluoromethyl)-2,3,4,5-tetrahydropyridin-2-yl)-4-fluoro-phenyl)-2-methyloxazole-4-carboxamide], the inhibition at 10 µM (BACE1 [1]) was 96%, the efflux ratio at 60 min, 0.5 μM (P-gp (MDR1)) was 4.59 and the Ki (BACE1 [2]) was 32 nM.

Work on `COc1cnc(C(=O)Nc2ccc(F)c([C@@]3(CF)N=C(N)CCC3(F)F)c2)nc1` [Compound 8, (S)-N-(3-(6-amino-3,3-difluoro-2-(fluoromethyl)-2,3,4,5-tetrahydropyridin-2-yl)-4-fluoro-phenyl)-5-methoxypyrimidine-2-carboxamide] yielded an efflux ratio at 60 min, 0.5 μM (P-gp (MDR1)) of 23.4 and a Ki (BACE1 [2]) of 29 nM.

`[2H]C([2H])([2H])Oc1ccc(C(=O)Nc2ccc(F)c([C@@]3(CF)N=C(N)CCC3(F)F)c2)nc1` [Compound 18, (S)-N-(3-(6-amino-3,3-difluoro-2-(fluoromethyl)-2,3,4,5-tetrahydropyridin-2-yl)-4-fluorophenyl)-5-(methoxy-d3)picolinamide] was tested, and the inhibition at 10 µM (BACE1 [1]) was 109% and the Ki (BACE1 [2]) was 25 nM.

In the case of `NC1=N[C@](CF)(c2cc(NC(=O)c3ccc(Br)cn3)ccc2F)C(F)(F)CC1` [Compound 19, (S)-N-(3-(6-amino-3,3-difluoro-2-(fluoromethyl)-2,3,4,5-tetrahydropyridin-2-yl)-4-fluorophenyl)-5-bromopicolinamide], the efflux ratio at 60 min, 0.5 μM (P-gp (MDR1)) is reported as 1.59 and the Ki (BACE1 [2]) is reported as 11 nM.
